From ChEMBL document CHEMBL1147360, “Conioidines A and B, novel DNA-interacting pyrrolidines from Chamaesaracha conioides” (J Nat Prod, 1993)
≈ marks a conversion by molar mass, not a printed value.

Experiments:
[1] = test system: Calf thymus DNA; assay: Binding affinity to calf thymus DNA; format: nucleic-acid assay, Bos taurus
[2] = test system: KB; assay: Cytotoxicity against human KB cells after 48 hrs; format: functional, cell-based
[3] = test system: KB; assay: Cytotoxicity against human KB cells after 48 hrs in presence of exogenous DNA; format: functional, cell-based

C/C=C(\C)C(=O)OC(C)CC1CCCN1C(=O)CCCCCCCCC (stereo not drawn) [CONIOIDINE A]
Kd [1]: 2800 nM | IC50 [2]: 0.67 µg/mL (≈ 1.83 µM) | IC50 [3]: 2.1 µg/mL
